# Test results as given in patent publication US20210379035A1, “Methods Of Treating Fabry Patients Having Renal Impairment” (Amicus Therapeutics, Inc., priority 2017, published 2021).
# Tests used:
# [1] = Plasma migalastat concentration in two Fabry patients with renal impairment (Example 3); type: in vivo, human; conditions: for concentration at 3 h: 3 Hrs Post
# Procedure: (§1) Thus, two Fabry patients with renal impairment were evaluated. One patient (P1) had moderate renal impairment, while the other patient (P2) had severe renal impairment. […] The comparison with the results from the ERT-naïve study allows for comparison of PK in the Fabry population with mostly normal, but some mild and a few moderately impaired Fabry patients. None of the patients in the ERT-naïve study had severe renal impairment because these patients were excluded from the study.
# [2] = tested on: cardiac repolarization; conditions: 150 mg and 1250 mg single doses; cited from earlier work
# [3] = tested on: Fabry patients; experiment: eGFR (MDRD) in Fabry patient P1; type: in vivo, human; conditions: P1 on migalastat, moderate impairment
# Procedure: as §1
# [4] = tested on: Fabry patients; experiment: Analysis of 52 ERT-naive patients by baseline proteinuria: eGFR; type: in vivo, human; conditions: for Annualized eGFRCKD-EPI Change Rate, Mean (SE): ERT-naive, migalastat HCl 150 mg QOD ≥17 months; for Annualized eGFR Rate of Change (eGFRMDRD), Mean (SEM): Migalastat cohort
# Procedure: Another analysis was performed on patients who participated in multiple studies for the use of migalastat. […] Results for […] were compared with changes in […] reported in the literature for untreated patients with Fabry disease (natural history cohort; Schiffmann R et al. Nephrol Dial Transplant. 2009; 24:2102-11) and are shown in Table 15 below: […]
# [5] = Additional simulations on renal impairment subjects (Example 4); parameters: species or system human; conditions: simulation
# [6] = tested on: Fabry patients; experiment: ERT-experienced study: LVMi; type: in vivo, human; conditions: Migalastat 0-18 months
# Procedure: (§2) One study was a 24-month trial, including a 6-month double-blind, placebo-controlled period, in 67 ERT-naïve patients. The other study was an active-controlled, 18-month trial in 57 ERT-experienced patients with a 12-month open-label extension (OLE). Both the ERT-naïve and ERT-experienced studies included Fabry patients having an eGFR of ≥30 mL/min/1.73 m^2.
# (§3) A further analysis of data from these studies examined annualized change in eGFRCKD-EPI, LVMi, WBC α-Gal A activity and plasma lyso-Gb3 levels based on renal function at baseline. The results for each renal subgroup are shown in Table 9 below, with the ERT-naïve study subgroups based on eGFRMDRD and the ERT-experienced study subgroups based on mGFRiohexol.
# [7] = ERT-naïve study population PK from sparse blood sampling; type: in vivo, human; conditions: ERT-naïve Fabry patients
# Procedure: as §1
# [8] = tested on: plasma lyso-GB3; experiment: ERT-naïve study: plasma lyso-Gb3; type: in vivo, human
# Procedure: as §2, §3
# [9] = tested on: Fabry patients; experiment: ERT-naïve study: renal function (eGFR); type: in vivo, human; conditions: for Annualized Change in eGFRCKD-EPI, mean ± SE: ERT-Naïve; for mean±SEM annualized rate of change of eGFRCKD-EPI: ERT-naïve study, baseline to 18/24 months
# Procedure: One study was a 24-month trial, including a 6-month double-blind, placebo-controlled period, in 67 ERT-naïve patients. The other study was an active-controlled, 18-month trial in 57 ERT-experienced patients with a 12-month open-label extension (OLE). Both the ERT-naïve and ERT-experienced studies included Fabry patients having an eGFR of ≥30 mL/min/1.73 m^2. The study designs for these studies are shown in FIGS. 10A-B. In the ERT-naïve study, the primary efficacy parameter was GL-3 inclusions per kidney interstitial capillary. […] A further analysis of data from these studies examined annualized change in […], WBC α-Gal A activity and plasma lyso-Gb3 levels based on renal function at baseline. The results for each renal subgroup are shown in Table 9 below, with the ERT-naïve study subgroups based on […] and the ERT-experienced study subgroups based on mGFRiohexol.
# [10] = tested on: GL-3 inclusions per kidney interstitial capillary; experiment: ERT-naïve study: kidney interstitial capillary GL-3 inclusions; type: in vivo, human
# Procedure: In the ERT-naïve study, the primary efficacy parameter was GL-3 inclusions per kidney interstitial capillary. Renal function was also evaluated by mGFRiohexol, eGFRCKD-EPI and eGFRMDRD.
# [11] = tested on: α-Gal A; experiment: ERT-experienced study: WBC α-Gal A activity; type: in vivo, human; conditions: Migalastat 0-18 months
# Procedure: as §2
# (§4) A further analysis of data from these studies examined annualized change in eGFRCKD-EPI, LVMi, WBC α-Gal A activity and plasma lyso-Gb3 levels based on renal function at baseline.
# [12] = tested on: Fabry patients; experiment: ERT-naïve study: LVMi; type: in vivo, human
# Procedure: as §2, §3
# [13] = tested on: α-Gal A; experiment: ERT-naïve study: WBC α-Gal A activity; type: in vivo, human
# Procedure: as §2, §4
# [14] = P1, second measurement set 6 months after the first
# [15] = Females, baseline urine protein 100-1000 mg/24 h
# [16] = Females, baseline urine protein <100 mg/24 h
# [17] = Females, baseline urine protein >1000 mg/24 h
# [18] = Males, baseline urine protein 100-1000 mg/24 h
# [19] = Males, baseline urine protein <100 mg/24 h
# [20] = Males, baseline urine protein >1000 mg/24 h
# [21] = Migalastat→Migalastat 0-24 months, renal subgroup 30 to < 60
# [22] = Migalastat→Migalastat 0-24 months, renal subgroup ≥60
# [23] = Placebo→Migalastat 6-24 months, renal subgroup ≥60
# [24] = Placebo→Migalastat 6-24 months, renal subgroup 30 to < 60
smiles,measurement,setting,value
"OC[C@H]1NC[C@H](O)[C@@H](O)[C@H]1O [migalastat, (2R,3S,4R,5S)-2-(hydroxymethyl) piperdine-3,4,5-triol]",increase of C48 concentration,[1]; [14],49%
same,increase of Cmax,[1]; [14],33%
same,concentration at 3 h,"[1]; human, plasma, Migalastat Conc 6 months later, Fabry patient P1, moderate renal impairment",2160 ng/mL
same,concentration at 24 h,"[1]; human, plasma, Migalastat Conc 6 months later, Fabry patient P1, moderate renal impairment, 24 Hrs Post",211 ng/mL
same,concentration at 48 h,"[1]; human, plasma, Migalastat Conc 6 months later, Fabry patient P1, moderate renal impairment, 48 Hrs Post",62.4 ng/mL
same,concentration at 3 h,"[1]; human, plasma, Migalastat Conc, Fabry patient P1, moderate renal impairment",1620 ng/mL
same,concentration at 24 h,"[1]; human, plasma, Migalastat Conc, Fabry patient P1, moderate renal impairment, 24 Hrs Post",168 ng/mL
same,concentration at 48 h,"[1]; human, plasma, Migalastat Conc, Fabry patient P1, moderate renal impairment, 48 Hrs Post",41.8 ng/mL
same,concentration at 2 h,"[1]; human, plasma, Migalastat Concentration, Fabry patient P2, severe renal impairment, 2 h, Occasion 1",564 ng/mL
same,concentration at 24 h,"[1]; human, plasma, Migalastat Concentration, Fabry patient P2, severe renal impairment, 24 h, Occasion 2",569 ng/mL
same,concentration at 48 h,"[1]; human, plasma, Migalastat Concentration, Fabry patient P2, severe renal impairment, 48 h, Occasion 1",322 ng/mL
same,concentration at 48 h,"[1]; human, plasma, Migalastat Concentration, Fabry patient P2, severe renal impairment, 48 h, Occasion 2",260 ng/mL
same,effect on cardiac repolarization,[2],negative
same,eGFRMDRD,[3],32 mL/min
same,"Annualized eGFRCKD-EPI Change Rate, Mean (SE)",[4]; [15],−0.3 (1.0) mL/min/1.73 m^2
same,"Annualized eGFRCKD-EPI Change Rate, Mean (SE)",[4]; [16],−0.9 (0.4) mL/min/1.73 m^2
same,"Annualized eGFRCKD-EPI Change Rate, Mean (SE)",[4]; [17],−2.2 (1.3) mL/min/1.73 m^2
same,"Annualized eGFRCKD-EPI Change Rate, Mean (SE)",[4]; [18],0.2 (0.8) mL/min/1.73 m^2
same,"Annualized eGFRCKD-EPI Change Rate, Mean (SE)",[4]; [19],0.4 (1.0) mL/min/1.73 m^2
same,"Annualized eGFRCKD-EPI Change Rate, Mean (SE)",[4]; [20],−5.1 (0.1) mL/min/1.73 m^2
same,"Annualized eGFR Rate of Change (eGFRMDRD), Mean (SEM)",[4]; [15],1.3 (1.5) mL/min/m^2
same,"Annualized eGFR Rate of Change (eGFRMDRD), Mean (SEM)",[4]; [16],−0.9 (0.5) mL/min/m^2
same,"Annualized eGFR Rate of Change (eGFRMDRD), Mean (SEM)",[4]; [17],−1.7 (1.1) mL/min/m^2
same,"Annualized eGFR Rate of Change (eGFRMDRD), Mean (SEM)",[4]; [18],0.9 (1.0) mL/min/m^2
same,"Annualized eGFR Rate of Change (eGFRMDRD), Mean (SEM)",[4]; [19],1.2 (1.2) mL/min/m^2
same,"Annualized eGFR Rate of Change (eGFRMDRD), Mean (SEM)",[4]; [20],−4.3 (0.1) mL/min/m^2
same,AUC Ratio,[5]; Mild (>=60-<90) vs Normal,1.2
same,AUC Ratio,[5]; Moderate (>=30-<60) vs Normal,1.9
same,AUC Ratio,[5]; Severe (<30) vs Normal,4.8
same,"LVMi, change from baseline, mean ± SE",[6]; renal subgroup 30 to < 60,−10.2 ± 2.4 gm^2
same,"LVMi, change from baseline, mean ± SE",[6]; renal subgroup ≥60,−4.8 ± 2.3 gm^2
same,Comparison to ERT-Naïve Study PK (migalastat concentration),[7]; Pre-dose (0 h),8.70 ng/mL
same,concentration at 3 h,"[7]; human, plasma, 3 Hrs Post",1180 ng/mL
same,concentration at 48 h,"[7]; human, plasma, 48 h",8.7 ng/mL
same,"Plasma lyso-Gb3, change from baseline, mean",[8]; [21],-29.0 nmol/L
same,"Plasma lyso-Gb3, change from baseline, mean",[8]; [22],-7.7 nmol/L
same,"Plasma lyso-Gb3, change from baseline, mean",[8]; [23],-20.0 nmol/L
same,"Annualized Change in eGFRCKD-EPI, mean ± SE",[9]; [21],+3.2 ± 1.1 mL/min/1.73 m^2
same,"Annualized Change in eGFRCKD-EPI, mean ± SE",[9]; [22],−0.7 ± 0.6 mL/min/1.73 m^2
same,"Annualized Change in eGFRCKD-EPI, mean ± SE",[9]; [24],−2.8 ± 2.8 mL/min/1.73 m^2
same,"Annualized Change in eGFRCKD-EPI, mean ± SE",[9]; [23],+0.1 ± 0.7 mL/min/1.73 m^2
same,mean±SEM annualized rate of change of eGFRCKD-EPI,[9]; mild renal impairment,−0.8±1.01 mL/min/1.73 m^2/year
same,mean±SEM annualized rate of change of eGFRCKD-EPI,[9]; moderate renal impairment,−0.7±3.97 mL/min/1.73 m^2/year
same,mean±SEM annualized rate of change of eGFRCKD-EPI,[9]; normal renal function,0.2±0.90 mL/min/1.73 m^2/year
same,change in kidney interstitial capillary GL-3 inclusions,"[10]; baseline to month 6, eGFR<60 mL/min/1.73 m^2, n=3",−0.39
same,change in kidney interstitial capillary GL-3 inclusions,"[10]; baseline to month 6, eGFR≥60 mL/min/1.73 m^2, n=22",−0.30
same,"WBC α-Gal A Activity (males only), change from baseline, mean ± SE",[11]; renal subgroup 30 to < 60,+4.6 ± 2.3 4MU/hr/mg
same,"WBC α-Gal A Activity (males only), change from baseline, mean ± SE",[11]; renal subgroup ≥60,+5.5 ± 1.4 4MU/hr/mg
same,"LVMi, change from baseline, mean ± SE",[12]; [21],−5.5 ± 10.0 gm^2
same,"LVMi, change from baseline, mean ± SE",[12]; [22],−9.2 ± 5.8 gm^2
same,"LVMi, change from baseline, mean ± SE",[12]; [24],−21.0 ± 14.1 gm^2
same,"LVMi, change from baseline, mean ± SE",[12]; [23],−3.2 ± 5.6 gm^2
same,"WBC α-Gal A Activity (males only), change from baseline",[13]; [21],+1.4 4MU/hr/mg
same,"WBC α-Gal A Activity (males only), change from baseline, mean ± SE",[13]; [22],+1.6 ± 1.5 4MU/hr/mg
same,"WBC α-Gal A Activity (males only), change from baseline, mean ± SE",[13]; [24],+4.0 ± 3.0 4MU/hr/mg
same,"WBC α-Gal A Activity (males only), change from baseline, mean ± SE",[13]; [23],5.2 4MU/h/mg
